Experiment: gradient 5% acetonitrile 3 min, to 50% in 2 min, to 85% in 15 min, held 3 min, 100 µL/min
Conditions: column: Zorbax Extend-C18 2.1 x 50 mm; eluents: water / acetonitrile, 0.1% formic acid
Outline: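 Mixtures of ~100 pure standards were chromatographed on a Zorbax Extend-C18 column (2.1 × 50 mm, 1.8 μm) at 100 μL/min using water and acetonitrile, each with 0.1% formic acid. Detection used a quadrupole time-of-flight mass spectrometer in positive and negative ionization mode, and data collection spanned 3 months. Retention time was obtained from adduct peaks picked computationally and each checked manually.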

CC(C)c1cc(C(=O)Nc2ccc(Cl)cc2F)no1
RP-LC retention time: 1140 s

CCCCN1C(=O)C(C)(C(=O)NCc2ccc(F)cc2)Oc2cccnc21 (stereo not given)
RP-LC retention time: 984 s

COc1cccc(NC(=O)N2CC(C)Oc3ccc(C)cc32)c1 (stereo not given)
RP-LC retention time: 654 s

Cc1ccc(CNC(=O)C(=O)NCCO)cc1
RP-LC retention time: 600 s

Cc1ccccc1-c1noc(Cn2ccn(Cc3ccc(Cl)cc3)c(=O)c2=O)n1
RP-LC retention time: 943 s

Cc1ccc(Cl)cc1NC(=O)c1cccn1Cc1noc(C2CC2)n1
RP-LC retention time: 1000 s

CC(C)n1c(=O)oc2cc(-c3noc(COc4ccc(Cl)cc4)n3)ccc21
RP-LC retention time: 1170 s

COc1ccc2c(c1)OC1(C)CC2C(S(=O)(=O)c2ccc(C)c(C)c2)C(=O)N1C (stereo not given)
RP-LC retention time: 1030 s

CC(C)NC(=O)c1nccnc1NC(=O)c1ccccc1
RP-LC retention time: 817 s

Cc1onc(-c2cccc(Br)c2)c1C(=O)NCCCN1CCOCC1
RP-LC retention time: 629 s

CCc1cc2c(cc(C(=O)NCc3ccccc3)n2C)s1
RP-LC retention time: 1060 s

CC(C)OC(=O)Cn1nc2c(-c3nc(-c4ccc(Cl)cc4)no3)cccn2c1=O
RP-LC retention time: 1040 s

CC(C)CNC(=O)C1CCN(S(C)(=O)=O)c2cc(Cl)ccc2O1 (stereo not given)
RP-LC retention time: 809 s

O=C(NC1CCCCCC1)C1CCN(Cc2cc3ccccc3n2Cc2cccc(Cl)c2)CC1
RP-LC retention time: 882 s

COc1ccc(-c2ncc3c(n2)CCN(S(=O)(=O)c2cc(C)ccc2C)C3)cc1
RP-LC retention time: 1150 s

Cn1nc(-c2nnc(-c3ccc(F)cc3)o2)c2c1CCN(S(=O)(=O)c1ccc3c(c1)CCCC3)C2
RP-LC retention time: 1090 s

O=C(Cc1ccc(NS(=O)(=O)c2ccc3c(c2)OCCO3)cc1)NC1CC1
RP-LC retention time: 678 s

COc1ccc(NC(=O)Cn2cccc2-c2nnc(C3CCC3)o2)cc1
RP-LC retention time: 850 s

CN(C)S(=O)(=O)c1ccc(Oc2ccc(S(=O)(=O)N(C)C)cc2)cc1
RP-LC retention time: 824 s

O=C(NCc1ccc(N2CCOCC2)cc1)c1cn2c(n1)CSCC2
RP-LC retention time: 604 s

CCC(C)NC(=O)CN1C(=O)CSc2c1c(C)nn2-c1ccccc1 (stereo not given)
RP-LC retention time: 764 s

Cn1cc(Cl)c(C(=O)N2CCCC2c2cccc(F)c2)n1 (stereo not given)
RP-LC retention time: 807 s

COC(=O)Nc1ccc(S(=O)(=O)NCc2ccc(C)cc2)cc1
RP-LC retention time: 788 s

CCOc1ccc(-c2nc(C3CC(=O)N(c4ccc(F)c(Cl)c4)C3)no2)cc1OCC (stereo not given)
RP-LC retention time: 1150 s

CCOC(=O)C1CCN(C(=O)CCC2CCCN(c3cc(NC4CC4)ncn3)C2)CC1 (stereo not given)
RP-LC retention time: 662 s

O=C(NC1CC1)c1ccc(OCC2CCN(C(=O)c3c(F)cccc3Cl)CC2)cc1
RP-LC retention time: 837 s

COC[C@@H]1OCCN(Cc2ccc(C)c(C)c2)[C@H]1c1ccccc1
RP-LC retention time: 724 s

Cc1cccc2c(=O)n(C3CCN(S(=O)(=O)c4ccc(F)c(F)c4)CC3)cnc12
RP-LC retention time: 989 s

CCn1nccc1-c1cccc(-c2noc(-c3cccc(Cl)c3)n2)c1
RP-LC retention time: 1360 s

CCOC(=O)N1CCN(C(=O)CSc2ccc3nnc(-c4cccnc4)n3n2)CC1
RP-LC retention time: 585 s

CC1(C(=O)NCc2ccc(F)cc2)CCCN(C(=O)Nc2ccc(F)cc2)C1 (stereo not given)
RP-LC retention time: 887 s

CCc1nc2c(NC(=O)c3ccccc3C(F)(F)F)cccn2n1
RP-LC retention time: 866 s

Cn1cc(C(=O)OCC2CCN(CCNS(C)(=O)=O)CC2)c2ccccc21
RP-LC retention time: 680 s

CCC1(O)CCC12CCN(C(=O)CC1CCCC1)CC2 (stereo not given)
RP-LC retention time: 830 s

O=C(C1CCOCC1)N1CCC(c2noc(-c3ccccn3)n2)C1 (stereo not given)
RP-LC retention time: 599 s

CN(C)c1ccc(C(=O)N2CCCC2COc2ccc(C(=O)N3CCCC3)cc2)cc1 (stereo not given)
RP-LC retention time: 748 s

COc1ccc(-c2nc(Cn3cnc4ccccc4c3=O)no2)c(OC)c1
RP-LC retention time: 765 s

Cc1cc(C2CCCN2C(=O)Nc2ccc(F)c(Cl)c2)no1 (stereo not given)
RP-LC retention time: 808 s

Cc1ccc(F)cc1NC(=O)Cn1nc2cc(-c3ccccc3)nc(C)n2c1=O
RP-LC retention time: 972 s

O=C(c1cc2ccccc2[nH]1)N1CCN(c2cc(-c3ccc(Cl)cc3)[nH]n2)CC1
RP-LC retention time: 923 s

CCn1cc(-c2nc(-c3ccc(OC(C)C)cc3)no2)c(=O)c2cc(F)c(N3CCOCC3)cc21
RP-LC retention time: 1050 s

Cc1c(CN2CC3(CCCCC3)CC2COc2ccncc2)cnn1C (stereo not given)
RP-LC retention time: 565 s

Cc1cc(-c2nnc(-c3ccccc3)o2)c(C)n1CC(=O)NC1CCCC1
RP-LC retention time: 886 s

COc1ccc(OC)c(NC(=O)Nc2cccc(-c3nccnc3N3CCCC3)c2)c1
RP-LC retention time: 916 s

CC1CCCCN1CCCNC(=O)CCCn1c(=O)c2cccn2c2ccc(F)cc21 (stereo not given)
RP-LC retention time: 639 s

O=C1NC(Cc2c[nH]c3ccccc23)C(=O)N1c1cccc(Cl)c1 (stereo not given)
RP-LC retention time: 790 s

CCC(=O)Nc1nc(-c2ccc3c(c2)NC(=O)C(C)O3)c(C)s1 (stereo not given)
RP-LC retention time: 759 s

CC(C)OCCCNC(=O)C(C)n1c2ccccc2c2cnn(C)c(=O)c21 (stereo not given)
RP-LC retention time: 803 s

Cc1ccc(NC(=O)Nc2c(-c3ccncc3)nc3ccccn23)cc1C
RP-LC retention time: 632 s

COc1cccc(NC(=O)Cn2nc3cc(C)nc(Nc4cc(C)cc(C)c4)n3c2=O)c1
RP-LC retention time: 1110 s

CCc1ccc(-n2ncc3c(=O)n(Cc4nc(-c5ccc(OC)c(OC)c5)no4)cnc32)cc1
RP-LC retention time: 1060 s

Cc1noc(C)c1-c1ccc(S(=O)(=O)N2CCC3(CC2)OCCO3)cc1
RP-LC retention time: 853 s

Cc1ccc(CNC(=O)N2CCC3(C2)C(=O)N(C)c2ccccc23)cc1 (stereo not given)
RP-LC retention time: 797 s

COC(=O)C(C)NC(=O)N1CCN(c2nc3ccccc3n3cccc23)CC1 (stereo not given)
RP-LC retention time: 605 s

O=C(Cn1ncc2c(N3CCN(c4ccccn4)CC3)ncnc21)N1CCN(c2ccccc2)CC1
RP-LC retention time: 603 s

COc1cccc(-c2ccc(=O)n(CCc3nc(-c4ccc(Br)cc4)no3)n2)c1
RP-LC retention time: 1110 s

Brc1ccc(-c2ccc(CNCc3ccc4c(c3)OCO4)o2)cc1
RP-LC retention time: 776 s

CN(C)[C@@H]1CN(C(=O)c2ccsc2)CC[C@]1(O)c1ccccc1
RP-LC retention time: 576 s

COC(=O)c1ccc(NC(=O)N2[C@H]3CC[C@@H]2c2cnc(-c4ccc(F)cc4)nc2C3)cc1
RP-LC retention time: 993 s

O=C(Cn1nc2n(c1=O)CCCCC2)Nc1cccc(Br)c1
RP-LC retention time: 757 s

Cc1cccc(-c2noc(C3CCCN3C(=O)Nc3ccc4c(c3)OCO4)n2)c1 (stereo not given)
RP-LC retention time: 961 s

COC(=O)c1ccsc1NC(=O)c1ccccc1Cl
RP-LC retention time: 897 s

CCc1nc2cccnc2n1C1CCN(C(=O)c2ccc(C(F)(F)F)cc2)C1 (stereo not given)
RP-LC retention time: 649 s

O=C(Nc1ccc2c(c1)C(=O)Nc1ccccc1O2)c1nc2ccccc2s1
RP-LC retention time: 928 s

CCOc1ccc2c(n1)CCN(C(=O)NC1CCCC1)C2
RP-LC retention time: 731 s

Cc1nn(CCC(=O)NCCc2ccco2)c(=O)c2nn(-c3ccccc3)c(C)c12
RP-LC retention time: 726 s

CC(=O)c1cccc(NC(=O)Cn2c(-c3cnccn3)nc(C)c(C)c2=O)c1
RP-LC retention time: 650 s

O=C(Nc1ccc(Cl)cc1)C1CCCN(S(=O)(=O)c2c[nH]c(C(=O)N3CCCCCC3)c2)C1 (stereo not given)
RP-LC retention time: 959 s

Cc1noc(-c2ccc(OC3CN(C(=O)C4CCOC4)C3)cc2)n1 (stereo not given)
RP-LC retention time: 695 s

CCn1c(=O)sc2cc(S(=O)(=O)N3CCC(C(=O)NCCc4ccccc4)CC3)ccc21
RP-LC retention time: 942 s

CCC(C)NC(=O)C1COC2(CCN(C(=O)c3ccc(F)cc3F)CC2)N1C(=O)c1ccccc1 (stereo not given)
RP-LC retention time: 744 s

Cc1ccccc1CCNC(=O)c1cc2n(n1)CC(C)(C(=O)NCc1ccc(F)cc1)N(C)C2=O (stereo not given)
RP-LC retention time: 821 s

CC(=O)c1cccc(NS(=O)(=O)c2ccc(F)c(Cl)c2)c1
RP-LC retention time: 839 s

COc1ccc2oc(-c3ccncc3)cc(=O)c2c1
RP-LC retention time: 701 s

Cc1ccc(CNC(=O)N(C)CC2CCOC2)cc1 (stereo not given)
RP-LC retention time: 575 s

CCC1Oc2ccc(C)cc2N(CC(=O)NCCN2CCc3ccccc3C2)C1=O (stereo not given)
RP-LC retention time: 698 s

COc1ccc2[nH]cc(CCNC(=O)c3cc(C)nc4c3c(=O)n(C)c(=O)n4C)c2c1
RP-LC retention time: 699 s

COC(=O)c1cc(OCC(=O)Nc2ccccc2Cl)c2cc(OC)ccc2n1
RP-LC retention time: 915 s

Cc1cc(NC(=O)CN(C)CCC#N)nc2c1c(=O)oc1ccccc12
RP-LC retention time: 694 s

C#C[C@]1(O)CC[C@H]2[C@@H]3CCC4=Cc5oncc5CC4(C)[C@H]3CCC21C (stereo not given in full)
RP-LC retention time: 1180 s

CCn1ccc2sc(C)c(C(=O)NCc3cccc(Cl)c3)c2c1=O
RP-LC retention time: 926 s

CCCCNC(=O)C1CC(=O)N(CCc2c[nH]c3ccc(Cl)cc23)C1 (stereo not given)
RP-LC retention time: 761 s

CCC1Oc2ccc(S(=O)(=O)N3CCC(C(=O)NCc4ccc(C)cc4)CC3)cc2NC1=O (stereo not given)
RP-LC retention time: 963 s

COc1ccc(CNC(=O)C2(C)CCN(C(=O)Nc3ccc(C)c(F)c3)CC2)cc1
RP-LC retention time: 880 s

Cc1oc(-c2ccccc2)nc1Cc1noc(-c2cccc(F)c2)n1
RP-LC retention time: 1160 s

Cn1nc(CO)c2c1CCN(C(=O)c1ccc3[nH]ccc3c1)C2
RP-LC retention time: 591 s

CCc1nc(N)n(CC(=O)Nc2ccc(C)c(C)c2)c(=O)c1C
RP-LC retention time: 650 s

Cc1nnc(NC(=O)c2ccc(N3CCCC3)nn2)s1
RP-LC retention time: 594 s

Cc1ccc(NC(=O)Cc2cccc3ccccc23)cc1N1CCCC1=O
RP-LC retention time: 753 s

COc1ccc(C(O)CN2CCN(c3ccccc3)CC2)cc1OC (stereo not given)
RP-LC retention time: 607 s

Reference: the METLIN SMRT retention time set (Domingo-Almenara et al. 2019)
